Test results: PMC12121777 (PLOS One, 2025)
Converted amounts (≈) assume the structure as drawn. Where two headings read alike, the source gives them in different places.

How the values were obtained:
Assay in all cases: microbe, parasite or virus in culture
Type in all cases: cell-based
Mtb 9449/2007 = details: Mycobacterium tuberculosis, read-out: MIC Mtb 9449/2007
Mtb Praha 4 = details: Mycobacterium tuberculosis, read-out: MIC Mtb Praha 4
Mtb Praha 1 = details: Mycobacterium tuberculosis, read-out: MIC Mtb Praha 1
Mtb 8666/2010 = details: Mycobacterium tuberculosis, read-out: MIC Mtb 8666/2010
Mtb 7357/1998 = details: Mycobacterium tuberculosis, read-out: MIC Mtb 7357/1998
Mtb Praha 131 = details: Mycobacterium tuberculosis, read-out: MIC Mtb Praha 131
Mtb 234/2005 = details: Mycobacterium tuberculosis, read-out: MIC Mtb 234/2005

| Compound | MIC (Mtb 9449/2007; 9449/2007, 336 h) [µM] | MIC (Mtb 9449/2007; 9449/2007, 504 h) [µM] | MIC (Mtb Praha 4; PRAHA4, 336 h) [µM] | MIC (Mtb Praha 4; PRAHA4, 504 h) [µM] | MIC (Mtb Praha 1; PRAHA1, 336 h) [µM] | MIC (Mtb Praha 1; PRAHA1, 504 h) [µM] | MIC (Mtb 8666/2010; 8666/2010, 336 h) [µM] | MIC (Mtb 8666/2010; 8666/2010, 504 h) [µM] | MIC (Mtb 7357/1998; 7357/1998, 336 h) [µM] | MIC (Mtb 7357/1998; 7357/1998, 504 h) [µM] | MIC (Mtb Praha 131; PRAHA131, 336 h) [µM] | MIC (Mtb Praha 131; PRAHA131, 504 h) [µM] | MIC (Mtb 234/2005; 234/2005, 336 h) [µM] | MIC (Mtb 234/2005; 234/2005, 504 h) [µM] |
| --- | --- | --- | --- | --- | --- | --- | --- | --- | --- | --- | --- | --- | --- | --- |
| CCCCCCCCCNC(=O)NNC(=O)c1cc([N+](=O)[O-])cc([N+](=O)[O-])c1 [Compound 4i, 2-(3,5-Dinitrobenzoyl)-N-nonylhydrazine-1-carboxamide] | 1 (≈ 0.395 µg/mL) | 1 (≈ 0.395 µg/mL) | 1 (≈ 0.395 µg/mL) | 1 (≈ 0.395 µg/mL) | 1 (≈ 0.395 µg/mL) | 2 (≈ 0.791 µg/mL) | 1 (≈ 0.395 µg/mL) | 1 (≈ 0.395 µg/mL) | 1 (≈ 0.395 µg/mL) | 1 (≈ 0.395 µg/mL) | 1 (≈ 0.395 µg/mL) | 2 (≈ 0.791 µg/mL) | 1 (≈ 0.395 µg/mL) | 2 (≈ 0.791 µg/mL) |
| CCCCCCCNc1nnc(-c2cc([N+](=O)[O-])cc([N+](=O)[O-])c2)o1 [Compound 5g, 5-(3,5-Dinitrophenyl)-N-heptyl-1,3,4-oxadiazol-2-amine] | ≤ 0.03 | 0.06 (≈ 0.021 µg/mL) | 0.06 (≈ 0.021 µg/mL) | 0.06 (≈ 0.021 µg/mL) | 0.06 (≈ 0.021 µg/mL) | 0.06 (≈ 0.021 µg/mL) | ≤ 0.03 | 0.06 (≈ 0.021 µg/mL) | 0.06 (≈ 0.021 µg/mL) | 0.06 (≈ 0.021 µg/mL) | 0.06 (≈ 0.021 µg/mL) | 0.06 (≈ 0.021 µg/mL) | 0.06 (≈ 0.021 µg/mL) | 0.06 (≈ 0.021 µg/mL) |
| O=[N+]([O-])c1cc(-c2nnc(NCc3ccc(Cl)cc3Cl)o2)cc([N+](=O)[O-])c1 [Compound 7d, N-(2,4-Dichlorobenzyl)-5-(3,5-dinitrophenyl)-1,3,4-oxadiazol-2-amine] | 0.06 (≈ 0.0246 µg/mL) | 0.125 (≈ 0.0513 µg/mL) | 0.06 (≈ 0.0246 µg/mL) | 0.125 (≈ 0.0513 µg/mL) | 0.125 (≈ 0.0513 µg/mL) | 0.125 (≈ 0.0513 µg/mL) | 0.06 (≈ 0.0246 µg/mL) | 0.125 (≈ 0.0513 µg/mL) | 0.125 (≈ 0.0513 µg/mL) | 0.125 (≈ 0.0513 µg/mL) | 0.125 (≈ 0.0513 µg/mL) | 0.125 (≈ 0.0513 µg/mL) | 0.06 (≈ 0.0246 µg/mL) | 0.125 (≈ 0.0513 µg/mL) |
| CCCCCCCCCCCNc1nnc(-c2cc([N+](=O)[O-])cc([N+](=O)[O-])c2)o1 [Compound 5k, 5-(3,5-Dinitrophenyl)-N-undecyl-1,3,4-oxadiazol-2-amine] | 0.25 (≈ 0.101 µg/mL) | 0.5 (≈ 0.203 µg/mL) | 0.25 (≈ 0.101 µg/mL) | 0.5 (≈ 0.203 µg/mL) | 0.25 (≈ 0.101 µg/mL) | 0.5 (≈ 0.203 µg/mL) | 0.25 (≈ 0.101 µg/mL) | 0.5 (≈ 0.203 µg/mL) | 0.25 (≈ 0.101 µg/mL) | 0.5 (≈ 0.203 µg/mL) | 0.25 (≈ 0.101 µg/mL) | 0.5 (≈ 0.203 µg/mL) | 0.25 (≈ 0.101 µg/mL) | 0.5 (≈ 0.203 µg/mL) |
| CCCCCCNc1nnc(-c2cc([N+](=O)[O-])cc([N+](=O)[O-])c2)o1 [Compound 5f, 5-(3,5-Dinitrophenyl)-N-hexyl-1,3,4-oxadiazol-2-amine] | ≤ 0.03 | ≤ 0.03 | ≤ 0.03 | ≤ 0.03 | ≤ 0.03 | ≤ 0.03 | ≤ 0.03 | ≤ 0.03 | ≤ 0.03 | ≤ 0.03 | ≤ 0.03 | ≤ 0.03 | ≤ 0.03 | ≤ 0.03 |
| CCCCCCCCNc1nnc(-c2cc([N+](=O)[O-])cc([N+](=O)[O-])c2)o1 [Compound 5h, 5-(3,5-Dinitrophenyl)-N-octyl-1,3,4-oxadiazol-2-amine] | 0.06 (≈ 0.0218 µg/mL) | 0.125 (≈ 0.0454 µg/mL) | 0.125 (≈ 0.0454 µg/mL) | 0.125 (≈ 0.0454 µg/mL) | 0.125 (≈ 0.0454 µg/mL) | 0.125 (≈ 0.0454 µg/mL) | 0.06 (≈ 0.0218 µg/mL) | 0.125 (≈ 0.0454 µg/mL) | 0.125 (≈ 0.0454 µg/mL) | 0.125 (≈ 0.0454 µg/mL) | 0.125 (≈ 0.0454 µg/mL) | 0.125 (≈ 0.0454 µg/mL) | 0.125 (≈ 0.0454 µg/mL) | 0.125 (≈ 0.0454 µg/mL) |
| CCCCCCCCCCCCNc1nnc(-c2cc([N+](=O)[O-])cc([N+](=O)[O-])c2)s1 [Compound 5s, 5-(3,5-Dinitrophenyl)-N-dodecyl-1,3,4-thiadiazol-2-amine] | 1 (≈ 0.436 µg/mL) | 2 (≈ 0.871 µg/mL) | 1 (≈ 0.436 µg/mL) | 1 (≈ 0.436 µg/mL) | 1 (≈ 0.436 µg/mL) | 1 (≈ 0.436 µg/mL) | 0.5 (≈ 0.218 µg/mL) | 1 (≈ 0.436 µg/mL) | 0.5 (≈ 0.218 µg/mL) | 1 (≈ 0.436 µg/mL) | 1 (≈ 0.436 µg/mL) | 1 (≈ 0.436 µg/mL) | 0.5 (≈ 0.218 µg/mL) | 1 (≈ 0.436 µg/mL) |
| CCCCCCCCNC(=O)NNC(=O)c1cc([N+](=O)[O-])cc([N+](=O)[O-])c1 [Compound 4h, 2-(3,5-Dinitrobenzoyl)-N-octylhydrazine-1-carboxamide] | 1 (≈ 0.381 µg/mL) | 1 (≈ 0.381 µg/mL) | 1 (≈ 0.381 µg/mL) | 1 (≈ 0.381 µg/mL) | 1 (≈ 0.381 µg/mL) | 1 (≈ 0.381 µg/mL) | 1 (≈ 0.381 µg/mL) | 1 (≈ 0.381 µg/mL) | 1 (≈ 0.381 µg/mL) | 1 (≈ 0.381 µg/mL) | 1 (≈ 0.381 µg/mL) | 1 (≈ 0.381 µg/mL) | 1 (≈ 0.381 µg/mL) | 1 (≈ 0.381 µg/mL) |
